{"source": "paper PMC12074917", "about": "“Molecular pharmacokinetic mechanism of JBP485 against aristolochic acid I (AAI) -induced nephrotoxicity” (Frontiers in Pharmacology, 2025)", "key": {"[1]": {"test_system": "AAI-induced nephrotoxicity in rats", "experiment": "Toxicity study in rats (AAI-induced nephrotoxicity, AAN): histology, biochemical indicators, oxidative stress markers, Western blotting of kidney", "assay_type": "in vivo, rat", "procedure": "For the assessment of toxicity, AAI was suspended in olive oil and JBP485 was dissolved in saline. Rats were randomly divided into the following four groups (n = 5 per group): A control group, which was administered saline intraperitoneally (i.p.) and olive oil orally (p.o.); a JBP485-only group, administered JBP485 i. p. at the dose of 50 mg/kg and olive oil p. o.; an AAI-only group, in which the rats were administered AAI p. o. at the dose of 20 mg/kg and saline i. p.; and a JBP485 + AAI group, where the animals were given AAI p. o. at the dose of 20 mg/kg and JBP485 i. p. at the dose of 50 mg/kg. JBP485 was intraperitoneally administered 2 days before AAI treatment. On day 3 and 30 min after AAI administration, rats were given saline i. p. or JBP485 (50 mg/kg) once daily for 7 days. On day 10, the rats were euthanized and blood, urine, and kidneys were collected for subsequent assays.\nIndoxyl sulfate levels in plasma and urine of rats were determined by liquid chromatography-tandem mass spectrometry (LC–MS/MS) (API 3200; Applied Biosystems, Foster City, CA, United States) according to our previous study ([Guo et al., 2013]).\nThe levels of BUN and CRE in rat plasma were detected following the instructions of the Nanjing Jiancheng Institute of Biotechnology (Nanjing, China). Samples and reagents were added according to the instructions of the kit and reactions were carried out under the specified conditions. Absorbance was measured at 520 nm and 546 nm, respectively, and the quantities were calculated based on the corresponding formula.\nFor the extraction of total protein, 100 mg of fresh kidney tissue was placed in 1 mL of RIPA buffer containing protease inhibitor, phosphatase inhibitor, and PMSF, cut into small pieces with ophthalmic scissors, homogenized, and placed at 4°C to fully lyse for 20 min, with vortexing every 5 min. Following centrifugation at 12,000 rpm for 20 min at 4°C, the protein concentration in the supernatant was determined using a BCA protein quantification kit. The protein concentrations of all the samples were then adjusted to the lowest protein concentration measured. Subsequently, an appropriate amount of 5× loading buffer was added according to the volume, and the samples were placed in boiling water for 10 min. Equal amounts of protein (40 μg) were separated by SDS–PAGE at constant current (120 mA), transferred to a PVDF membrane by wet transfer, blocked in 5% non-fat dry milk for 2 h, and incubated overnight with primary antibodies. The next day, the samples were incubated with the corresponding secondary antibodies (goat anti-rabbit IgG [H&L], 1:2000, or goat anti-mouse IgG [H&L], 1:2000) for 2 h at room temperature. The protein bands were developed using enhanced chemiluminescence (ECL, YH0009-1, Nanjing Crane Biopharmaceuticals, Nanjing, China) and Tanon-5200 system (Shanghai Tianneng Technology Company, Shanghai, China) while ImageJ 6.0 software was used for analysis."}, "hOAT1": {"molecular_target": "T1, hOAT1 (Homo sapiens, UniProt Q4U2R8)", "T1 construct": "expressed in transfected cells; host or cells: HEK293", "T1 sequence (Q4U2R8 1-563)": "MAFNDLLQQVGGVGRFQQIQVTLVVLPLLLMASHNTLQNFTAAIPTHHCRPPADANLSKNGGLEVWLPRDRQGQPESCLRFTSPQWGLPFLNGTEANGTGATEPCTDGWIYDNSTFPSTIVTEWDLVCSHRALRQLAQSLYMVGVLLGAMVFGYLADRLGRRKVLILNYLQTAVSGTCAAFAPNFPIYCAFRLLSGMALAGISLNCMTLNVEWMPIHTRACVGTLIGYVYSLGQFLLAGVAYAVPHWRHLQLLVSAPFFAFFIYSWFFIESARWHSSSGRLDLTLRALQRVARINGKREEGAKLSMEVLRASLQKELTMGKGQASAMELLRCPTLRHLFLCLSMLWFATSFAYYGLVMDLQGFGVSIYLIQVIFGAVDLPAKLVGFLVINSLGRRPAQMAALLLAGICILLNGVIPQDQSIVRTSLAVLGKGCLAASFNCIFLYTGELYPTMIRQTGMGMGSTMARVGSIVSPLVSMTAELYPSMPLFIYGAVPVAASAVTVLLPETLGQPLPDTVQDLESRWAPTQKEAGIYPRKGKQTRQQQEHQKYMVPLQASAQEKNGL", "experiment": "Uptake of AAI by hOAT1-transfected HEK293 cells with or without JBP485", "assay_type": "cell-based", "procedure": "Uptake experiments with hOAT1/3-HEK293 cells were performed as previously described ([Zhu et al., 2020]). Uptake was initiated by adding transport buffer (1 mL) with AAI (1 μM) and/or JBP485 (500 μM) after the cells were washed twice and incubated with transport buffer at 37°C. Moreover, the concentration-dependent uptake of AAI and the effects of JBP485 on AAI uptake were examined. Uptake was terminated upon the removal of the medium. The cells were washed three times with 1 mL of ice-cold Hanks’ balanced salt solution, lysed with 0.3 mL of 0.1% (v/v) Triton X-100, and then transferred to a polythene tube for quantification by LC-MS/MS. The protein level was measured using the BCA method (Solarbio, Beijing, China) with bovine serum albumin serving as the standard.\nThe concentrations of the test compounds in plasma, urine, and cell lysates were determined using an Agilent HP1200 liquid chromatography system (Agilent Technology Inc., SC, CA, United States) and an API 3200 triple-quadrupole mass spectrometer (Applied Biosystems, SC, CA, United States). After protein precipitation using acetonitrile, the analyte was separated on a Hypersil BDS C18 column. The mobile phase consisted of acetonitrile and water containing 0.1% (v/v) formic acid (80:20, v/v). The flow rate was 0.4 mL/min. The mass spectrometer was equipped with an electrospray ionization (ESI) source. Data were acquired in positive ion mode and dynamic multiple reaction monitoring (MRM) mode. The ESI source conditions were as follows: ion spray voltage, 5.5 kV; ion source temperature, 600°C; Gas source 1 (GS1, N2) pressure, 50 psi; Gas source 2 (GS2, N2) pressure, 60 psi; curtain gas (CUR) pressure, 12 psi; and collision gas (CAD) pressure, 10 psi. EP and CXP were set at […] for all analytes. The scan range was m/z 359.9→298.1 for AAI and m/z 130.0→71.2 for IS (Internal Standard, metformin). […] Intra- and inter-day precision was lower than 4.5% with reference to relative standard deviation, while accuracy was within ±6.5% in terms of relative error for analytes. Analyst software (version 1.4.1) was used for equipment control and data acquisition and analysis."}, "[2]": {"settings": "AAI group vs control, Western blot"}, "[3]": {"settings": "JBP485 50 mg/kg i.p. co-administered with AAI 20 mg/kg p.o."}, "[4]": {"settings": "JBP485 co-administered with AAI"}, "[5]": {"settings": "JBP485 co-administered with AAI vs AAI alone"}, "[6]": {"settings": "JBP485 treatment with AAI vs AAI alone"}}, "data": [{"smiles": "COc1cccc2c1cc([N+](=O)[O-])c1c(C(=O)O)cc3c(c12)OCO3", "note": "[AAI, Aristolochic Acid I]", "values": [{"measurement": "kidney histology (H&E)", "setting": "[1]; AAI 20 mg/kg p.o.", "value": "showed damage"}, {"measurement": "body weight", "setting": "[1]; AAI 20 mg/kg p.o. vs control", "value": "significantly decreased"}, {"measurement": "kidney weight-to-body weight ratio", "setting": "[1]; AAI 20 mg/kg p.o. vs control", "value": "increase"}, {"measurement": "MDA levels in the kidney", "setting": "[1]; AAI group vs control", "value": "markedly increased"}, {"measurement": "SOD level in the kidney", "setting": "[1]; AAI group vs control", "value": "significantly decreased"}, {"measurement": "plasma level of BUN", "setting": "[1]; AAI group vs control", "value": "significantly higher"}, {"measurement": "plasma level of CRE", "setting": "[1]; AAI group vs control", "value": "significantly higher"}, {"measurement": "plasma level of indoxyl sulfate", "setting": "[1]; AAI group vs control", "value": "significantly higher"}, {"measurement": "urine level of indoxyl sulfate", "setting": "[1]; AAI group vs control", "value": "lower"}, {"measurement": "Bax expression in the kidney", "setting": "[1]; [2]", "value": "increased"}, {"measurement": "Bcl-2 expression in the kidney", "setting": "[1]; [2]", "value": "decreased"}, {"measurement": "HO-1 protein level in the kidney", "setting": "[1]; [2]", "value": "significantly decreased"}, {"measurement": "NQO1 protein level in the kidney", "setting": "[1]; [2]", "value": "significantly decreased"}, {"measurement": "renal transporter expression (Oat1, Oat3, Oct2, P-gp, Mrp2, Mate1)", "setting": "[1]; AAI-treated rats, Western blot", "value": "downregulation"}, {"measurement": "Km", "setting": "hOAT1; hOAT1-HEK293 cells, with or without JBP485, Eadie-Hofstee, n = 3", "value": "15.7 ± 0.4", "unit": "µM"}, {"measurement": "Vmax of AAI uptake", "setting": "hOAT1; hOAT1-HEK293 cells, with or without JBP485, n = 3", "value": "0.141 ± 0.04", "unit": "nmol/mg protein/1min"}]}, {"smiles": "O=C1N[C@@H](CO)C(=O)N2C[C@H](O)C[C@@H]12", "note": "(relative stereo) [JBP485, cyclo-trans-4-L-hydroxyprolyl-L-serine]", "values": [{"measurement": "AAI-induced weight loss", "setting": "[1]; [3]", "value": "significantly prevented"}, {"measurement": "renal morphology", "setting": "[1]; [3]", "value": "markedly improved"}, {"measurement": "expression levels of Bcl-2 and Bax in the kidney", "setting": "[1]; JBP485-only treatment group", "value": "no change"}, {"measurement": "body weight or renal morphology", "setting": "[1]; JBP485 alone 50 mg/kg i.p.", "value": "did not influence"}, {"measurement": "kidney histology (H&E)", "setting": "[1]; JBP485 alone vs control", "value": "no significant difference"}, {"measurement": "AAI effect on Bax expression in the kidney", "setting": "[1]; [4]", "value": "notably reversed"}, {"measurement": "AAI effect on Bcl-2 expression in the kidney", "setting": "[1]; [4]", "value": "notably reversed"}, {"measurement": "AAI-induced histopathological effects in the kidney (H&E)", "setting": "[1]; [4]", "value": "significantly mitigated"}, {"measurement": "kidney weight-to-body weight ratio", "setting": "[1]; [5]", "value": "reduced"}, {"measurement": "plasma level of BUN", "setting": "[1]; [5]", "value": "opposite trend"}, {"measurement": "plasma level of CRE", "setting": "[1]; [5]", "value": "opposite trend"}, {"measurement": "plasma level of indoxyl sulfate", "setting": "[1]; [5]", "value": "opposite trend"}, {"measurement": "urine level of indoxyl sulfate", "setting": "[1]; [5]", "value": "opposite trend"}, {"measurement": "protein expressions of Oat1, Oat3, Oct2, P-gp, Mrp2 and Mate1 in the kidney", "setting": "[1]; JBP485 co-administered with AAI vs AAI alone, Western blot", "value": "significantly increased"}, {"measurement": "AAI effect on HO-1 protein level in the kidney", "setting": "[1]; [6]", "value": "reversed"}, {"measurement": "AAI effect on MDA levels in the kidney", "setting": "[1]; [6]", "value": "reversed"}, {"measurement": "AAI effect on NQO1 protein level in the kidney", "setting": "[1]; [6]", "value": "reversed"}, {"measurement": "AAI effect on SOD level in the kidney", "setting": "[1]; [6]", "value": "reversed"}, {"measurement": "type of inhibition of AAI uptake", "setting": "hOAT1; hOAT1-HEK293 cells, Km increased, Vmax unchanged", "value": "competitive inhibition"}, {"measurement": "IC50", "setting": "hOAT1; hOAT1-transfected HEK293 cells, substrate AAI, read-out: IC50 of inhibition of AAI uptake, OAT1", "value": "89.8 ± 12.3", "unit": "µM"}]}]}
